Measurements from the NIST ThermoML archive (doi:10.1016/j.jct.2006.09.012).
Values joined by “and” are separate entries in the source; they are usually repeats but may differ in a detail not shown here. Equal entries are not always repeated.

Conditions: Gas, Buoyancy - hydrostatic balance with magnetic suspension - two sinkers

N#N [nitrogen]
Conditions | mass density
340.01 K, 11962 kPa | 114.845 kg/m3 and 114.844 kg/m3 and 114.842 kg/m3
340.01 K, 15961 kPa | 150.241 kg/m3 and 150.238 kg/m3 and 150.239 kg/m3
340.01 K, 15962 kPa | 150.242 kg/m3 and 150.24 kg/m3
340.01 K, 20072 kPa | 184.447 kg/m3 [middle of 5 runs]
340.01 K, 20073 kPa | 184.453 kg/m3
340.01 K, 24069 kPa | 215.463 kg/m3
340.01 K, 24070 kPa | 215.467 kg/m3 and 215.465 kg/m3 and 215.466 kg/m3
340.01 K, 28607 kPa | 247.989 kg/m3 and 247.99 kg/m3
340.01 K, 28608 kPa | 247.996 kg/m3 and 247.999 kg/m3 and 247.993 kg/m3
340.01 K, 33718 kPa | 281.379 kg/m3
340.01 K, 33719 kPa | 281.38 kg/m3 and 281.384 kg/m3
340.01 K, 33720 kPa | 281.389 kg/m3 and 281.386 kg/m3
359.99 K, 5385.3 kPa | 49.7747 kg/m3
359.99 K, 5385.4 kPa | 49.7738 kg/m3 and 49.7746 kg/m3
359.99 K, 5385.5 kPa | 49.7747 kg/m3 and 49.7744 kg/m3
359.99 K, 11539 kPa | 104.182 kg/m3
359.99 K, 23337 kPa | 197.246 kg/m3
360 K, 11538 kPa | 104.181 kg/m3 and 104.18 kg/m3
360 K, 11539 kPa | 104.182 kg/m3 and 104.181 kg/m3
360 K, 23336 kPa | 197.238 kg/m3 and 197.239 kg/m3 and 197.241 kg/m3
360 K, 23337 kPa | 197.243 kg/m3
379.99 K, 5685.7 kPa | 49.5887 kg/m3 [middle of 4 runs]
379.99 K, 5685.8 kPa | 49.589 kg/m3 and 49.5891 kg/m3
379.99 K, 12228 kPa | 103.776 kg/m3 and 103.778 kg/m3
380 K, 12228 kPa | 103.775 kg/m3 and 103.776 kg/m3
380 K, 24868 kPa | 196.492 kg/m3 and 196.493 kg/m3 and 196.491 kg/m3
380 K, 24869 kPa | 196.497 kg/m3 and 196.496 kg/m3 and 196.492 kg/m3
399.97 K, 499.5 kPa | 4.2016 kg/m3 and 4.2015 kg/m3 and 4.2014 kg/m3
399.97 K, 999 kPa | 8.3914 kg/m3 and 8.3913 kg/m3 and 8.3912 kg/m3
399.97 K, 1998 kPa | 16.7314 kg/m3 and 16.7313 kg/m3 and 16.7315 kg/m3
399.97 K, 3996 kPa | 33.2413 kg/m3 and 33.241 kg/m3 and 33.2411 kg/m3
399.97 K, 5994.1 kPa | 49.4948 kg/m3 and 49.4949 kg/m3 and 49.4947 kg/m3
399.99 K, 5983.6 kPa | 49.4072 kg/m3 and 49.4075 kg/m3
399.99 K, 5983.7 kPa | 49.4089 kg/m3 and 49.4079 kg/m3
399.99 K, 5983.8 kPa | 49.4087 kg/m3 and 49.4092 kg/m3
399.99 K, 12911 kPa | 103.383 kg/m3
399.99 K, 12912 kPa | 103.387 kg/m3
400 K, 12911 kPa | 103.385 kg/m3 and 103.384 kg/m3 and 103.383 kg/m3
400 K, 12912 kPa | 103.388 kg/m3
400 K, 26381 kPa | 195.763 kg/m3 and 195.766 kg/m3
400 K, 26382 kPa | 195.77 kg/m3
400 K, 26383 kPa | 195.774 kg/m3
419.99 K, 6278.6 kPa | 49.2274 kg/m3 [middle of 5 runs]
419.99 K, 13587 kPa | 103.001 kg/m3 and 103.002 kg/m3
420 K, 13587 kPa | 103 kg/m3 and 103.001 kg/m3 and 103.002 kg/m3
420 K, 27876 kPa | 195.057 kg/m3 and 195.058 kg/m3 and 195.06 kg/m3
420 K, 27877 kPa | 195.065 kg/m3 and 195.064 kg/m3
420 K, 27878 kPa | 195.07 kg/m3
439.98 K, 499.5 kPa | 3.8187 kg/m3 [middle of 5 runs]
439.98 K, 999 kPa | 7.6237 kg/m3 and 7.6236 kg/m3 and 7.6238 kg/m3
439.98 K, 1998 kPa | 15.1913 kg/m3 and 15.1914 kg/m3
439.98 K, 3995.9 kPa | 30.1496 kg/m3 [middle of 4 runs]
439.98 K, 5993.9 kPa | 44.8532 kg/m3 [middle of 4 runs]
439.99 K, 6571 kPa | 49.0492 kg/m3
439.99 K, 6571.1 kPa | 49.0504 kg/m3 and 49.0497 kg/m3 and 49.05 kg/m3
440 K, 14255 kPa | 102.622 kg/m3 [middle of 6 runs]
440 K, 29348 kPa | 194.34 kg/m3 and 194.342 kg/m3 and 194.344 kg/m3
440 K, 29349 kPa | 194.345 kg/m3 and 194.347 kg/m3 and 194.348 kg/m3
459.99 K, 6861.3 kPa | 48.8758 kg/m3 and 48.8757 kg/m3
460 K, 6861.3 kPa | 48.8757 kg/m3 and 48.8759 kg/m3
460 K, 6861.4 kPa | 48.8764 kg/m3
460 K, 14917 kPa | 102.251 kg/m3 [middle of 5 runs]
460 K, 14918 kPa | 102.253 kg/m3
460 K, 30809 kPa | 193.675 kg/m3
460 K, 30810 kPa | 193.681 kg/m3 and 193.677 kg/m3 and 193.678 kg/m3
460 K, 30811 kPa | 193.683 kg/m3
460 K, 30812 kPa | 193.69 kg/m3
479.99 K, 7148.6 kPa | 48.7024 kg/m3
479.99 K, 7148.7 kPa | 48.7027 kg/m3
480 K, 499.5 kPa | 3.4995 kg/m3 [middle of 5 runs]
480 K, 999 kPa | 6.9854 kg/m3 [middle of 5 runs]
480 K, 1998 kPa | 13.9143 kg/m3 [middle of 5 runs]
480 K, 3996 kPa | 27.6012 kg/m3 and 27.6015 kg/m3 and 27.6009 kg/m3
480 K, 5994 kPa | 41.0449 kg/m3 and 41.045 kg/m3
480 K, 5994.1 kPa | 41.0449 kg/m3 and 41.0443 kg/m3 and 41.045 kg/m3
480 K, 7148.6 kPa | 48.7016 kg/m3 and 48.7015 kg/m3
480 K, 7148.7 kPa | 48.7027 kg/m3
480 K, 15572 kPa | 101.884 kg/m3 [middle of 5 runs]
480 K, 15573 kPa | 101.886 kg/m3
480 K, 32254 kPa | 193.025 kg/m3
480 K, 32255 kPa | 193.027 kg/m3 and 193.029 kg/m3
480 K, 32256 kPa | 193.032 kg/m3 and 193.035 kg/m3
500 K, 7433.7 kPa | 48.5307 kg/m3 and 48.5313 kg/m3
500 K, 7433.8 kPa | 48.531 kg/m3 and 48.5323 kg/m3 and 48.5317 kg/m3
500 K, 7433.9 kPa | 48.5314 kg/m3
500 K, 16220 kPa | 101.517 kg/m3 and 101.518 kg/m3 and 101.519 kg/m3
500 K, 16221 kPa | 101.519 kg/m3 and 101.521 kg/m3
500 K, 33681 kPa | 192.377 kg/m3
500 K, 33682 kPa | 192.38 kg/m3 and 192.382 kg/m3
500 K, 33683 kPa | 192.384 kg/m3
500 K, 33684 kPa | 192.389 kg/m3
500 K, 33686 kPa | 192.396 kg/m3
